# Measured values published in patent US11813306B2, “Cyclic tetramer compounds as proprotein convertase subtilisin/kexin type 9 (PCSK9) inhibitors for the treatment of metabolic disorders” (NOVARTIS AG, priority 2018, dated 2023).
# Biological target: human PCSK9 (Homo sapiens, UniProt Q8NBP7)
# Assay: PCSK9 ligand binding assay (TR-FRET): interference with binding of human PCSK9 to human LDLR
# Conditions: for IC50: Human PCSK9 Alexa Fluor 647 / Human LDLR extracellular domain-Europium Kryptate; for Max % inhibition: efficacy (Amax), 100% = 1 uM unlabeled human PCSK9, 0% = DMSO
# How it was run: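 Read-out was TR-FRET ratio (665 nm over 615 nm, 330 nm excitation) between Alexa Fluor 647-human PCSK9 (16 nM added) and Europium Kryptate-human LDLR ectodomain (4 nM added). Compound and PCSK9 were mixed 30 min before LDLR, then incubated 2 h. Inhibition was normalised to DMSO and unlabelled-PCSK9 controls, giving IC50 and Amax.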
# human PCSK9, sequence (Q8NBP7 153-692): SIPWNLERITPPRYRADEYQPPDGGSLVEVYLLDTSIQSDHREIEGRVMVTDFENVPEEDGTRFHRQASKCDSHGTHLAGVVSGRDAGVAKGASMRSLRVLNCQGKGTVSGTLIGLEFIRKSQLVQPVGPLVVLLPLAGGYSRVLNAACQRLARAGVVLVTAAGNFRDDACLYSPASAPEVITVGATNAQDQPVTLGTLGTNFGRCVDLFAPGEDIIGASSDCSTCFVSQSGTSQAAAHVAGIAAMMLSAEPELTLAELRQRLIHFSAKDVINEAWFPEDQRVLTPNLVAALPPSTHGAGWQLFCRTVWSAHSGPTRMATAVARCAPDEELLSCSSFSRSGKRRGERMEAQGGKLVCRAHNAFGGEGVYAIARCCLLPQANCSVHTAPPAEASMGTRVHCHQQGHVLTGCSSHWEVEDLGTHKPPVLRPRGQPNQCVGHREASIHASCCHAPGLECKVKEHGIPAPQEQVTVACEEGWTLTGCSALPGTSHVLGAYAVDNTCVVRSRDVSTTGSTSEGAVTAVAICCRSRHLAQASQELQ
# human PCSK9, sequence (Q8NBP7 31-152 partner limits assumed): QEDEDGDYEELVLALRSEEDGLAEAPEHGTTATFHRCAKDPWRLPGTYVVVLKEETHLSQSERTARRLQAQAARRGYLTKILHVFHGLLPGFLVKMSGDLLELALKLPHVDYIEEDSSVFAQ
IC50,Max % inhibition,SMILES
0.18 nM,114.0%,"COC[C@@H]1NC(=O)[C@H](C)N(Cc2c(F)cc(Cl)cc2Oc2ccc(-c3cnc(CNC(C)(C)C)n3C)cc2)C(=O)C[C@@H](CC(F)(F)F)C(=O)N2CCC[C@@](Cc3ccc(Cl)cc3)(C2)NC1=O [Compound 138, (3S, 7S, 10S, 13R)-6-(2-(4-(2-((tert-butylamino)methyl)-1-methyl-1H-imidazol-5-yl)phenoxy)-4-chloro-6-fluorobenzyl)-13-(4-chlorobenzyl)-10-(methoxymethyl)-7-methyl-3-(2,2,2-trifluoroethyl)-1,6,9,12-tetraazabicyclo[11.3.1]heptadecane-2,5,8,11-tetraone]"
0.15 nM,113.0%,"C[C@H]1C(=O)N[C@@H](CO)C(=O)N[C@@]2(Cc3ccc(Cl)cc3)CCCN(C2)C(=O)[C@H](CC(F)(F)F)CC(=O)N1Cc1c(F)cc(Cl)cc1Oc1ccc(-c2cnc(CN(C)C3CCC3)n2C)cc1 [Compound 139, (3S, 7S, 10S, 13R)-6-(4-chloro-2-(4-(2-((cyclobutyl(methyl)amino)methyl)-1-methyl-1H-imidazol-5-yl)phenoxy)-6-fluorobenzyl)-13-(4-chlorobenzyl)-10-(hydroxymethyl)-7-methyl-3-(2,2,2-trifluoroethyl)-1,6,9,12-tetraazabicyclo[11.3.1]heptadecane-2,5,8,11-tetraone]"
1.45 nM,109.6%,"COC[C@@H]1NC(=O)[C@H](C)N(Cc2c(F)cc(Cl)cc2Oc2ccc(-c3cnc(CN(C)C)n3C)cc2)C(=O)C[C@@H](C2CCC2)C(=O)N2CCC[C@@](Cc3ccc(Cl)cc3)(C2)N(C)C1=O [Compound 140, (3S, 7S, 10S, 13R)-6-(4-chloro-2-(4-(2-((dimethylamino)methyl)-1-methyl-1H-imidazol-5-yl)phenoxy)-6-fluorobenzyl)-13-(4-chlorobenzyl)-3-cyclobutyl-10-(methoxymethyl)-7,12-dimethyl-1,6,9,12-tetraazabicyclo[11.3.1]heptadecane-2,5,8,11-tetraone]"
1.78 nM,112.3%,"COC[C@@H]1NC(=O)[C@H](C)N(Cc2c(F)cc(Cl)cc2Oc2ccc(-c3cnc(CN(C)C(C)(C)C)n3C)cc2)C(=O)C[C@@H](CC(F)(F)F)C(=O)N2CCC[C@@](Cc3ccc(Cl)cc3)(C2)N(C)C1=O [Compound 141, (3S, 7S, 10S, 13R)-6-(2-(4-(2-((tert-butyl(methyl)amino)methyl)-1-methyl-1H-imidazol-5-yl)phenoxy)-4-chloro-6-fluorobenzyl)-13-(4-chlorobenzyl)-10-(methoxymethyl)-7,12-dimethyl-3-(2,2,2-trifluoroethyl)-1,6,9,12-tetraazabicyclo[11.3.1]heptadecane-2,5,8,11-tetraone]"
0.91 nM,111.1%,"COC[C@@H]1NC(=O)[C@H](C)N(Cc2c(F)cc(Cl)cc2Oc2ccc(-c3cnc(CNC(C)(C)C)n3C)cc2)C(=O)C[C@@H](CC2CC2)C(=O)N2CCC[C@@](Cc3ccc(Cl)cc3)(C2)NC1=O [Compound 142, (3R, 7S, 10S, 13R)-6-(2-(4-(2-((tert-butylamino)methyl)-1-methyl-1H-imidazol-5-yl)phenoxy)-4-chloro-6-fluorobenzyl)-13-(4-chlorobenzyl)-3-(cyclopropylmethyl)-10-(methoxymethyl)-7-methyl-1,6,9,12-tetraazabicyclo[11.3.1]heptadecane-2,5,8,11-tetraone]"
1.28 nM,113.6%,"C[C@H]1C(=O)N[C@@H](CO)C(=O)N[C@@]2(Cc3ccc(Cl)cc3)CCCN(C2)C(=O)[C@H](CC(F)(F)F)CC(=O)N1Cc1ccc(Cl)cc1Oc1ccc(-c2cnc(CN(C)C(C)(C)C)n2C)cc1 [Compound 143, (3S, 7S, 10S, 13R)-6-(2-(4-(2-((tert-butyl(methyl)amino)methyl)-1-methyl-1H-imidazol-5-yl)phenoxy)-4-chlorobenzyl)-13-(4-chlorobenzyl)-10-(hydroxymethyl)-7-methyl-3-(2,2,2-trifluoroethyl)-1,6,9,12-tetraazabicyclo[11.3.1]heptadecane-2,5,8,11-tetraone]"
